Experimental data taken from PMC6005341, “Identification of “sarsasapogenin-aglyconed” timosaponins as novel Aβ-lowering modulators of amyloid precursor protein processing” (Chemical Science, 2016).

What was measured:
[1] = test system: brain Aβ / amyloid in APPswe transgene; details: cited from earlier work
[2] = test system: Mouse primary cortical neurons; design: method as in earlier work; details: ref J. Biol. Chem. (2005) 280: 5829, J. Biol. Chem. (2010) 285:28472, read-out: In vitro IC50 Aβ inhibition; cited from earlier work
[3] = test system: HEK293 expressing APPswe; design: method as in J Neurosci Res (2012) 92: 108; details: ref J Neurosci Res (2012) 92: 108, read-out: In vitro IC50 Aβ inhibition; cited from earlier work
[4] = test system: Brain Aβ42 in APP/PS1 transgene; design: method as in J. Biol. Chem. (2010) 285:9110; details: diet with 0.35% for 15 weeks, ref J. Biol. Chem. (2010) 285:9110; cited from earlier work
[5] = test system: HEK293 expressing APP; design: method as in J. Biol. Chem. (2010) 285:9110; details: ref J. Biol. Chem. (2010) 285:9110, read-out: In vitro IC50 Aβ inhibition; cited from earlier work
[6] = test system: β-secretase; design: method as in PMID 23082924; details: rat retina; cited from earlier work
[7] = test system: SH-SY5Y Cells expressing APP; design: method as in J Neurosci. (2005) 25: 3032; J. Biol. Chem (2011) 286:14028; details: ref J Neurosci. (2005) 25: 3032, J. Biol. Chem (2011) 286:14028, read-out: In vitro IC50 Aβ inhibition; cited from earlier work
[8] = Plasma and brain concentrations by LC-MS/MS; type: in vivo, mice
Description: (§1) Animal experiments: Male C57BL/6N mice were housed in environmentally controlled room (temperature: 25 ± 2 °C, humidity: 50 ± 5%, 12-h light-dark cycle) in Laboratory Animal Unit, The University of Hong Kong and were freely access to food and water. TAIII, TAI SSG and compound 34 were dissolved in 5% Tween 80 and given to the mice by oral gavage at three repeated doses of 100 mg/kg in 48 hours. Mice were administrated with 5% Tween 80 (control group), TAIII, TAI SSG and 34. The experimental procedures were performed with the approval of Committee of Use of Live Animal for Teaching and Research of The University of Hong Kong. Blood (about 600-800 µL) was collected by cardiac puncture and added with 1/10 volume of Na2EDTA (20 mg/mL) to prevent coagulation. After centrifugation at 3000 g for 15 min at 4 °C, plasma was transferred to a centrifuge tube. The brain was dissected into two hemispheres on ice, weighed and frozen in liquid nitrogen immediately. The left brain was homogenized with 1 mL of buffer containing 5 M guanidine HCl, 50 mM Tris HCl, pH 8.0, with protease inhibitor cocktail and AEBSF using a Polytron and the homogenates were allowed to stand at room temperature for 3h. Both plasma and brain samples were stored at -80 °C until they were analyzed. […]
B. Determination of timosaponin levels in mice plasma and brain by ultra-high pressure liquid chromatography tandem mass spectrometry
The UPLC-ESI-QTOF consists of a Waters Q-TOF PremierTM mass spectrometer (Micromass MS Technologies, Manchester, UK) operated in positive ion mode and a Waters ACQUITY TM UPLC system. The mass spectrometer conditions were optimized as follows: source […]
temperature, 120 °C; desolvation temperature, 500 °C; nebulization gas flow rate, 1000 L/h; cone gas flow rate, 20 L/h; capillary voltage, 2.5 kV; sampling cone voltage, 28V. The data were collected into two separate data channels with the instrument spending 0.5 s on data acquisition for each channel and a 0.1 s inter-channel delay. The mass spectrometer was calibrated by using the solution of sodium formate (0.5 mM) and the TOF scan range was from 100 to 1000 Da. In order to improve mass measurement accuracy a lock mass compound (50 pg µL−1 solution of leucine encephalin; m/z 556.2771) was continuously infused at a 0.5 mL min-1 using the built-in syringe pump of the instrument.
Sample was loaded into a Waters ACQUITY TM BEH C18 column (100 × 2.1 mm i.d., 1.7 µM) connected to a Waters ACQUITY TM BEH C18 guard column (5 × 2.1 mm i.d., 1.7 µM). The gradient elution system consisted of 0.1% formic acid in water (A) and 0.1% formic acid in acetonitrile (B). Separation was achieved by using: 30%-55% B from 0 to 3 min; 55-100% B from 3 to 6 min; 100% B from 6 to 12 min and returned to initial conditions and equilibrated for 3 minutes. The flow rate was 0.3 mL/min and the injection volume was 5 µL.
Standard preparation and sample preparation
Stock solution (10 µM ) of each analyte was prepared by dissolving in methanol. They were subject to serial dilution to give calibration curves of SSG 1 (plasma: y = 8.7485× - 0.0676; […]
each concentration of each analyte was transferred to a centrifuge tube and evaporated to dryness by a concentrator. Dioscin (20 µL , 10 µM) was added as an internal standard followed by methanol (130 µL) and control plasma (50 µL). The mixture was vortexed for 5 s and centrifuged (15000 × g) for 15 min. The supernatant was collected and evaporated to dryness by a concentrator. Methanol (100 µL) was added and then vortexed again for 10 s and centrifuged (15000 × g) for 20 min. The supernatant (5 µL) was subject to LC-MS/MS analysis. Analyte-treated plasma, control brain and analyte-treated brain were prepared in a […]
The acquisition and processing of data were performed by Masslynx (version 4.1) software.
Mass window of ±10 mDa and mass resolution of 9000 were set for both molecular ions and product ions. MS full scan was applied to acquire high abundant molecular ions [M+H]+ with […]

[9] = test system: Aβ42 levels in the brain; test: In vivo brain Aβ42 level by ELISA after oral dosing; details: 100 mg kg^–1 oral gavage, three times in 2 days, 3–5 month old C57BL/6 mice
Description: was performed at least three times. The lowest binding scores were computed and the conformations of the corresponding binding pose presented.
Quantum mechanics/Molecular mechanics. The binding between transmembrane and substrate was further optimized using the QM/MM approach and NWChem software. The quantum part (QM) included TAIII (total 116 atoms), while the rest of the system was modelled as the molecular mechanics (MM) level. The QM region was treated at the DFT level using the B3LYP method. The 6-31G* Pople basis set was employed for all the atoms.
The transmembrane was described with the AMBER parm99 force field. The binding structure was solvated in a cubic box with 6872 classical SPC/E water molecules. Three negative counter ions (Cl-) were added to neutralize the charges in the system. The structure was optimized by performing the BFGS algorithm for the QM part and the steepest descent algorithm for the MM part. The optimization of these two regions (QM and MM) was alternated until self-consistency was reached.
as §1, with “The brain was dissected into two hemispheres on ice, weighed and frozen in liquid nitrogen immediately. The left brain was homogenized with 1 mL of buffer containing 5 M guanidine HCl, 50 mM Tris HCl, pH 8.0, with protease inhibitor cocktail and AEBSF using a Polytron and the homogenates were allowed to stand at room temperature for 3h.” left out, “analyzed. The Aβ42 levels were determined by Wako High Sensitive Aβx-42 ELISA kit.” for “analyzed.”

[10] = test system: Aβ42 production in N2A-APPswe cells; test: Aβ42 in conditioned medium of N2A-APPswe cells by ELISA, 18 h treatment; type: cell-based; details: N2a-APPswe, read-out: IC50 in lowering Aβ42 production, N2A-APPswe cells; mean ± standard deviation; n ≥ 3
Description: Sigma-Aldrich Chemical Co. unless otherwise specified. SSG (1) was purchased from Wako Pure Chemical Industries, Ltd. Diosgenin (6), Dioscin (9), Polyphyllin D (10), Timosaponin BI (22) and Timosaponin BII (23) were purchased from Chengdu Must Bio-Technology Co.
Ltd. Yamogenin (7) was bought from Ambinter c/o Greenpharma while Smilagenin (24) was bought from Steraloids Inc. Substances dissolved in DMSO as stock solutions. Cell culture medium constituents were purchased from Life Technologies, Inc.
Cell culture: Neuro-2A cells expressing Swedish mutants of APP (N2A-APPswe provided by Prof. Yifan Han, The Hong Kong Polytechnic University)1 was cultured in minimal essential medium with 2 mM glutamine, 2 mM pyruvate and 10% fetal bovine serum. […]
Aβ ELISA: Aβ concentrations in conditioned medium were assayed using ELISA kits for […]

[11] = test system: N2A expressing APPswe; design: method as in J. Neurosci., (2005) 25:8807; details: ref J. Neurosci., (2005) 25:8807, read-out: In vitro IC50 Aβ inhibition; cited from earlier work
[12] = any metabolite, mice n = 6, three oral doses 100 mg/kg in two days

COc1cc(/C=C/C(=O)CC(=O)/C=C/c2ccc(O)c(OC)c2)ccc1O [Curcumin]
Amyloid deposition ([1]; chow with 500 ppm for 22 weeks, ref J. Biol. Chem. (2005) 280: 5829, J. Biol. Chem. (2010) 285:28472): reduced | IC50 [2]: > 20 µM

C/C=C1\[C@H]2C=C(C)C[C@]1(N)c1ccc(=O)[nH]c1C2 [Huperzine A]
IC50 [3]: ~10 µM

Oc1ccc(/C=C/c2cc(O)cc(O)c2)cc1 [Resveratrol]
Brain Aβ42 reduced by [4]: 20% | IC50 [5]: ~20 µM

C[C@@H](CC[C@@]1(O)O[C@H]2C[C@H]3[C@@H]4CC[C@@H]5C[C@@H](O[C@@H]6O[C@H](CO)[C@H](O)[C@H](O)[C@H]6O[C@@H]6O[C@H](CO)[C@@H](O)[C@H](O)[C@H]6O)CC[C@]5(C)[C@H]4CC[C@]3(C)[C@H]2[C@@H]1C)CO[C@@H]1O[C@H](CO)[C@@H](O)[C@H](O)[C@H]1O [Timosaponin B II (23), timosaponin B II]
up-regulation of β-secretase induced by ferric chloride [6]: inhibit

CC/C=C\C/C=C\C/C=C\C/C=C\C/C=C\C/C=C\CCC(=O)O [docosahexaenoic acid]
Total Aβ reduced by ([1]; diet with 0.5% level for 5 months, ref J Neurosci. (2005) 25: 3032, J. Biol. Chem (2011) 286:14028): 70% | IC50 [7]: ~100 µM

CC1CCC2(OC1)OC1CC3C4CCC5CC(OCC(=O)NCC6OC(O)C(O)C(O)C6O)CCC5(C)C4CCC3(C)C1C2C (stereo not drawn) [α-, β-OH SSG (34), α-, β-OH SSG]
Brain Metabolite [8, 12]: Not detected | Plasma Metabolite [8, 12]: Not detected | Brain Precursor ([8]; mice n = 6, three oral doses 100 mg/kg in two days): 0.025 ± 0.041 µM | Plasma Precursor ([8]; mice n = 6, three repeated oral doses 100 mg/kg in two days): 0.051 ± 0.072 µM | reduction of Aβ42 levels in the brain [9]: 87% ± 15% | IC50 [10]: 7.3 ± 4 µM

Epigallocatechin-3-gallate [Epigallocatechin-3-gallate (EGCG)]
IC50 [11]: ~20 µM
